Non-standard residues stand in square brackets, D forms with d. Residues, ends and D or L forms follow the SMILES beside them.
Tested on: S. aureus JAR
Assay type: cell-based
Conditions: for LC99.9 (μM) (50% plasma) / LC99.9 (μM) (PBS): JAR, 2 h
Experimental: S. aureus JAR is described in Campoccia et al. (Int. J. Artif. Organs, 2008 September; 31(9):841-7).
For the in vitro killing assay with P10 variants, S. aureus JAR ([…] CFU/ml) were incubated for 2 hours at 37° C. with various concentrations of the peptides in PBS or in PBS/human plasma (1/1, v/v). […] The LC99.9 is the average value of two independent experiments.

Row | Molecule | LC99.9 (μM) (50% plasma) [µM] | LC99.9 (μM) (PBS) [µM] | antimicrobial activity, in words (statements referring to Tables 2-6)
1 | CC[C@@H](C)[C@@H](NC(=O)[C@@H](CCCCN)NC(=O)[C@@H](CCCCN)NC(=O)[C@@H](Cc1ccc(O)cc1)NC(=O)[C@@H](CCC(=O)O)NC(=O)[C@@H](CCCNC(=N)N)NC(=O)[C@@H](C)NC(=O)[C@@H](CC(C)C)NC(C)=O)C(=O)N[C@@H](C(=O)N[C@H](CCC(=O)O)C(=O)N[C@H](CCCCN)C(=O)N[C@H](CC(C)C)C(=O)N[C@H](CCCCN)C(=O)N[C@H](CCCNC(=N)N)C(=O)N[C@H](Cc1c[nH]c2ccccc12)C(=O)N[C@H](CC(C)C)C(=O)N[C@H](CCCNC(=N)N)C(=O)N[C@H](CCC(N)=O)C(=O)N[C@@H](C(=O)N[C@H](CC(C)C)C(=O)N[C@H](CCCNC(=N)N)C(=O)N[C@@H](C(=O)N[C@H](CC(C)C)C(=O)N[C@H](CCCNC(=N)N)C(N)=O)[C@H](C)O)C(C)C)C(C)C [Peptide 1313-07, JlareykkiveklkrwlrqvlrtlrB] (Ac-[dL][dA][dR][dE][dY][dK][dK][dI][dV][dE][dK][dL][dK][dR][dW][dL][dR][dQ][dV][dL][dR][dT][dL][dR]-NH2) | 25.6 | 1.6 | possesses antimicrobial activity
2 | CC[C@H](C)[C@H](NC(=O)[C@H](CCCCN)NC(=O)[C@H](CCCCN)NC(=O)[C@H](Cc1ccc(O)cc1)NC(=O)[C@H](CCC(=O)O)NC(=O)[C@H](CCCNC(=N)N)NC(=O)[C@H](C)NC(=O)[C@H](CC(C)C)NC(C)=O)C(=O)N[C@H](C(=O)N[C@H](CCC(=O)O)C(=O)N[C@@H](CCCCN)C(=O)N[C@@H](CC(C)C)C(=O)N[C@@H](CCCCN)C(=O)N[C@@H](CCCNC(=N)N)C(=O)N[C@@H](Cc1c[nH]c2ccccc12)C(=O)N[C@@H](CC(C)C)C(=O)N[C@@H](CCCNC(=N)N)C(=O)N[C@@H](CCC(N)=O)C(=O)N[C@H](C(=O)N[C@@H](CC(C)C)C(=O)N[C@@H](CCCNC(=N)N)C(=O)N[C@H](C(=O)N[C@@H](CC(C)C)C(=O)N[C@@H](CCCNC(=N)N)C(N)=O)[C@@H](C)O)C(C)C)C(C)C [Peptide 1301-10, JLAREYKKIVeKLKRWLRQVLRTLRB] (Ac-LAREYKKIV[dE]KLKRWLRQVLRTLR-NH2) | 38.4 | 0.6 | –
3 | CC[C@H](C)[C@H](NC(=O)[C@H](CCCCN)NC(=O)[C@H](CCCCN)NC(=O)[C@@H](Cc1ccc(O)cc1)NC(=O)[C@H](CCC(=O)O)NC(=O)[C@H](CCCNC(=N)N)NC(=O)[C@H](C)NC(=O)[C@H](CC(C)C)NC(C)=O)C(=O)N[C@H](C(=O)N[C@@H](CCC(=O)O)C(=O)N[C@@H](CCCCN)C(=O)N[C@@H](CC(C)C)C(=O)N[C@@H](CCCCN)C(=O)N[C@@H](CCCNC(=N)N)C(=O)N[C@@H](Cc1c[nH]c2ccccc12)C(=O)N[C@@H](CC(C)C)C(=O)N[C@@H](CCCNC(=N)N)C(=O)N[C@@H](CCC(N)=O)C(=O)N[C@H](C(=O)N[C@@H](CC(C)C)C(=O)N[C@@H](CCCNC(=N)N)C(=O)N[C@H](C(=O)N[C@@H](CC(C)C)C(=O)N[C@@H](CCCNC(=N)N)C(N)=O)[C@@H](C)O)C(C)C)C(C)C [Peptide 1301-5, JLAREyKKIVEKLKRWLRQVLRTLRB] (Ac-LARE[dY]KKIVEKLKRWLRQVLRTLR-NH2) | 38.4 | 0.6 | –
4 | CC[C@H](C)[C@H](NC(=O)[C@H](CCCCN)NC(=O)[C@H](CCCCN)NC(=O)[C@H](Cc1ccc(O)cc1)NC(=O)[C@H](CCC(=O)O)NC(=O)[C@H](CCCNC(=N)N)NC(=O)[C@H](C)NC(=O)[C@H](CC(C)C)NC(C)=O)C(=O)N[C@H](C(=O)N[C@@H](CCC(=O)O)C(=O)N[C@H](CCCCN)C(=O)N[C@@H](CC(C)C)C(=O)N[C@@H](CCCCN)C(=O)N[C@@H](CCCNC(=N)N)C(=O)N[C@@H](Cc1c[nH]c2ccccc12)C(=O)N[C@@H](CC(C)C)C(=O)N[C@@H](CCCNC(=N)N)C(=O)N[C@@H](CCC(N)=O)C(=O)N[C@H](C(=O)N[C@@H](CC(C)C)C(=O)N[C@@H](CCCNC(=N)N)C(=O)N[C@H](C(=O)N[C@@H](CC(C)C)C(=O)N[C@@H](CCCNC(=N)N)C(N)=O)[C@@H](C)O)C(C)C)C(C)C [Peptide 1301-11, JLAREYKKIVEkLKRWLRQVLRTLRB] (Ac-LAREYKKIVE[dK]LKRWLRQVLRTLR-NH2) | 19.2 | 0.4 | –
5 | Ac-LAREYPKIVEKLKRWLRPVLRTLR-NH2 [Peptide 1302-14, JLAREYPKIVEKLKRWLRPVLRTLRB] | 102.4 | 3.2 | –
6 | CC[C@H](C)[C@H](NC(=O)[C@H](CCCCN)NC(=O)[C@H](CCCCN)NC(=O)[C@H](Cc1ccc(O)cc1)NC(=O)[C@@H](CCC(=O)O)NC(=O)[C@H](CCCNC(=N)N)NC(=O)[C@H](C)NC(=O)[C@H](CC(C)C)NC(C)=O)C(=O)N[C@H](C(=O)N[C@@H](CCC(=O)O)C(=O)N[C@@H](CCCCN)C(=O)N[C@@H](CC(C)C)C(=O)N[C@@H](CCCCN)C(=O)N[C@@H](CCCNC(=N)N)C(=O)N[C@@H](Cc1c[nH]c2ccccc12)C(=O)N[C@@H](CC(C)C)C(=O)N[C@@H](CCCNC(=N)N)C(=O)N[C@@H](CCC(N)=O)C(=O)N[C@H](C(=O)N[C@@H](CC(C)C)C(=O)N[C@@H](CCCNC(=N)N)C(=O)N[C@H](C(=O)N[C@@H](CC(C)C)C(=O)N[C@@H](CCCNC(=N)N)C(N)=O)[C@@H](C)O)C(C)C)C(C)C [Peptide 1301-4, JLAReYKKIVEKLKRWLRQVLRTLRB] (Ac-LAR[dE]YKKIVEKLKRWLRQVLRTLR-NH2) | 38.4 | 0.6 | –
7 | CC[C@H](C)[C@H](NC(=O)[C@H](CCCCN)NC(=O)[C@H](CCCCN)NC(=O)[C@H](Cc1ccc(O)cc1)NC(=O)[C@H](CCC(=O)O)NC(=O)[C@H](CCCNC(=N)N)NC(=O)[C@H](C)NC(=O)[C@H](CC(C)C)NC(C)=O)C(=O)N[C@H](C(=O)N[C@@H](CCC(=O)O)C(=O)N[C@@H](CCCCN)C(=O)N[C@@H](CC(C)C)C(=O)N[C@@H](CCCCN)C(=O)N[C@@H](CCCNC(=N)N)C(=O)N[C@@H](Cc1c[nH]c2ccccc12)C(=O)N[C@@H](CC(C)C)C(=O)N[C@@H](CCCNC(=N)N)C(=O)N[C@@H](CCC(N)=O)C(=O)N[C@H](C(=O)N[C@@H](CC(C)C)C(=O)N[C@@H](CCCNC(=N)N)C(=O)N[C@H](C(=O)N[C@@H](CC(C)C)C(=O)N[C@H](CCCNC(=N)N)C(N)=O)[C@@H](C)O)C(C)C)C(C)C [Peptide 1301-24, JLAREYKKIVEKLKRWLRQVLRTLrB] (Ac-LAREYKKIVEKLKRWLRQVLRTL[dR]-NH2) | 19.2 | 0.6 | –
8 | Ac-LAKEYKKIVEKLKRWLRQVLRTLR-NH2 [Peptide 1302-23, JLAKEYKKIVEKLKRWLRQVLRTLRB] | 102.4 | 1.6 | –
9 | Ac-LAREYKKIVEKLKRWLRQVLRNLR-NH2 [Peptide 1302-53, JLAREYKKIVEKLKRWLRQVLRNLRB] | 51.2 | 1.6 | –
10 | Ac-LAREYKHIVEKLKRWLRQVLRTLR-NH2 [Peptide 1302-30, JLAREYKHIVEKLKRWLRQVLRTLRB] | 102.4 | 3.2 | –
11 | Ac-LAREYKKIVEKLKRWLRQVLRT-NH2 [Peptide 1302-57, JLAREYKKIVEKLKRWLRQVLRTB] | 51.2 | 1.6 | –
12 | Ac-LAREYKKIVEKAKRWLRQVLRTLR-NH2 [Peptide 1302-36, JLAREYKKIVEKAKRWLRQVLRTLRB] | 76.8 | 3.2 | –
13 | Ac-LLREYKKIVEKLKRWLRQVLRTLR-NH2 [Peptide 1302-20, JLLREYKKIVEKLKRWLRQVLRTLRB] | 102.4 | 1.6 | –
14 | CC[C@H](C)[C@H](NC(=O)[C@H](CCCCN)NC(=O)[C@H](CCCCN)NC(=O)[C@H](Cc1ccc(O)cc1)NC(=O)[C@H](CCC(=O)O)NC(=O)[C@H](CCCNC(=N)N)NC(=O)[C@H](C)NC(=O)[C@H](CC(C)C)NC(C)=O)C(=O)N[C@H](C(=O)N[C@@H](CCC(=O)O)C(=O)N[C@@H](CCCCN)C(=O)N[C@@H](CC(C)C)C(=O)N[C@@H](CCCCN)C(=O)N[C@@H](CCCNC(=N)N)C(=O)N[C@H](Cc1c[nH]c2ccccc12)C(=O)N[C@@H](CC(C)C)C(=O)N[C@@H](CCCNC(=N)N)C(=O)N[C@@H](CCC(N)=O)C(=O)N[C@H](C(=O)N[C@@H](CC(C)C)C(=O)N[C@@H](CCCNC(=N)N)C(=O)N[C@H](C(=O)N[C@@H](CC(C)C)C(=O)N[C@@H](CCCNC(=N)N)C(N)=O)[C@@H](C)O)C(C)C)C(C)C [Peptide 1301-15, JLAREYKKIVEKLKRwLRQVLRTLRB] (Ac-LAREYKKIVEKLKR[dW]LRQVLRTLR-NH2) | 38.4 | 0.4 | –
15 | Ac-LAREYKKIVEKLKRWLRTVLRTLR-NH2 [Peptide 1302-45, JLAREYKKIVEKLKRWLRTVLRTLRB] | 76.8 | 1.6 | –
16 | Ac-LAREYKPIVEKLKRWPRQVLRTLR-NH2 [Peptide 1302-13, JLAREYKPIVEKLKRWPRQVLRTLRB] | >102.4 | >3.2 | –
17 | CC[C@H](C)[C@H](NC(=O)[C@H](CCCCN)NC(=O)[C@H](CCCCN)NC(=O)[C@H](Cc1ccc(O)cc1)NC(=O)[C@H](CCC(=O)O)NC(=O)[C@H](CCCNC(=N)N)NC(=O)[C@H](C)NC(=O)[C@H](CC(C)C)NC(C)=O)C(=O)N[C@H](C(=O)N[C@@H](CCC(=O)O)C(=O)N[C@@H](CCCCN)C(=O)N[C@@H](CC(C)C)C(=O)N[C@@H](CCCCN)C(=O)N[C@@H](CCCNC(=N)N)C(=O)N[C@@H](Cc1c[nH]c2ccccc12)C(=O)N[C@@H](CC(C)C)C(=O)N[C@@H](CCCNC(=N)N)C(=O)N[C@@H](CCC(N)=O)C(=O)N[C@H](C(=O)N[C@H](CC(C)C)C(=O)N[C@@H](CCCNC(=N)N)C(=O)N[C@H](C(=O)N[C@@H](CC(C)C)C(=O)N[C@@H](CCCNC(=N)N)C(N)=O)[C@@H](C)O)C(C)C)C(C)C [Peptide 1301-20, JLAREYKKIVEKLKRWLRQVlRTLRB] (Ac-LAREYKKIVEKLKRWLRQV[dL]RTLR-NH2) | 38.4 | 0.6 | –

Reference: US9562085B2, “Antimicrobial peptide” (priority 2013, dated 2017)
